Assay: MALDI-TOF screening of Ni^2+ dependent hydrolysis in a combinatorial peptide library
Assay type: physicochemical
Conditions: CH3CO-Gly-Ala-Ser-X-His-Z-Lys-Phe-Leu-NH2 library, Ni^2+ 2 mM, pH 8.2, 10 mM Tris, score=24/tm
Description: The sequence CH3CO-Gly-Ala-Ser/Thr-X-His-Z-Lys-Phe-Leu-NH2 was designed so that the fixed R1 and R2 sequences, CH3CO-Gly-Ala, and Lys-Phe-Leu-NH2, respectively, allowed optimal detection by MALDI-TOF mass spectrometry of substrates as well as expected products, Ser/Thr-X-His-Z-Lys-Phe-Leu-NH2 and assured separation between the clusters of signals for substrates and products in sublibraries (see below).
Residues in position X included all amino acids commonly present in proteins, except for Asp, Glu, and Cys. The former two contain carboxylates in their side chains, which may bind Ni^2+ in a way which would quench or slow down the hydrolysis reaction. The Cys residue may do the same, and also may engage in side reactions with Ni^2+ ions, including redox processes (for example see Bal and Kasprzak, Toxicol. Lett. 2002, 127, 55-62). Only the Cys residue was eliminated from position Z, for the same reasons.
The synthesis of the library was accomplished on a RINK amide resin (Novabiochem) on a 800 mg scale, according to a typical Fmoc protocol (Fields, Meth. Enzymol. Vol. 289). The resin-attached Leu-Phe-Lys peptide was synthesised first and coupled with the isokinetic mixture of 19 amino acids selected for position Z, and then with the H is residue. The resin carrying the library of pentapeptides was divided into Ser and Thr halves at this stage, and each of these halves into 17 portions, which were coupled with individual amino acids selected for position X. The coupling with Ser or Thr as appropriate, additions of Ala and Gly residues, acetylation of Gly, deprotection and cleavage from the resin were accomplished subsequently. Each of the resulting 34 samples of sublibraries randomized at position X was separated into two portions, one for the reaction at 37° C. and another for the reaction at 45° C. The hydrolysis reactions were accomplished in 10 mM Tris buffers at pH 8.2. The total concentrations of peptide mixtures and Ni^2+ ions were 1 mM and 2 mM, respectively. The pH for the reaction was chosen as selective for highly reactive sequences.
The detection of reaction products was accomplished with the use of a MALDI-TOF mass spectrometer (Micromass). The aliquots were removed from reaction mixtures and measured by MS at 2, 4, 6, and 8 hours of incubation. The progress of reaction was evaluated by visual detection in mass spectra of appearance of signals corresponding to expected products of hydrolysis, Ser/Thr-X-His-Z-Lys-Phe-Leu-NH2, at given measurement times, tm. […] Also the decrease of signals of substrates was controlled in these cases.
Residues X and Z were then sorted according to various molecular parameters, describing their physical properties (Carugo, In Silico Biol. 2003, 3, 0035). […] The Ser library provided a higher number of reactive peptides than the Thr library. Following the additivity of effects, the scores were also summed up in lines and columns of Table 1A-D, thereby creating final rankings for preferred substitutions in positions X and Z.

| Substance | hydrolysis score from MALDI-TOF screening (37° C.) | hydrolysis score from MALDI-TOF screening (45° C.) |
| --- | --- | --- |
| Ac-GASHHNKFL-NH2 [SHHN] | 0 (a score of 0 if no trace of the product of hydrolysis was seen after 8 hours of incubation) | 0 (a score of 0 if no trace of the product of hydrolysis was seen after 8 hours of incubation) |
| Ac-GASHHPKFL-NH2 [SHHP] | 0 (a score of 0 if no trace of the product of hydrolysis was seen after 8 hours of incubation) | 0 (a score of 0 if no trace of the product of hydrolysis was seen after 8 hours of incubation) |
| Ac-GASHHQKFL-NH2 [SHHQ] | 0 (a score of 0 if no trace of the product of hydrolysis was seen after 8 hours of incubation) | 0 (a score of 0 if no trace of the product of hydrolysis was seen after 8 hours of incubation) |
| Ac-GASHHRKFL-NH2 [SHHR] | 4 (a score of 4 for detection at 6 hours) | 6 (a score of 6 for detection at 4 hours) |
| Ac-GASHHSKFL-NH2 [SHHS] | 0 (a score of 0 if no trace of the product of hydrolysis was seen after 8 hours of incubation) | 0 (a score of 0 if no trace of the product of hydrolysis was seen after 8 hours of incubation) |
| Ac-GASHHTKFL-NH2 [SHHT] | 0 (a score of 0 if no trace of the product of hydrolysis was seen after 8 hours of incubation) | 0 (a score of 0 if no trace of the product of hydrolysis was seen after 8 hours of incubation) |
| Ac-GASHHVKFL-NH2 [SHHV] | 6 (a score of 6 for detection at 4 hours) | 6 (a score of 6 for detection at 4 hours) |
| Ac-GASHHWKFL-NH2 [SHHW] | 6 (a score of 6 for detection at 4 hours) | 12 (a score of 12, if it was seen to be partially hydrolysed at 2 hours) |
| Ac-GASHHYKFL-NH2 [SHHY] | 3 (a score of 3 for detection at 8 hours) | 4 (a score of 4 for detection at 6 hours) |
| Ac-GASIHAKFL-NH2 [SIHA] | 0 (a score of 0 if no trace of the product of hydrolysis was seen after 8 hours of incubation) | 0 (a score of 0 if no trace of the product of hydrolysis was seen after 8 hours of incubation) |
| Ac-GASIHDKFL-NH2 [SIHD] | 0 (a score of 0 if no trace of the product of hydrolysis was seen after 8 hours of incubation) | 0 (a score of 0 if no trace of the product of hydrolysis was seen after 8 hours of incubation) |
| Ac-GASIHEKFL-NH2 [SIHE] | 0 (a score of 0 if no trace of the product of hydrolysis was seen after 8 hours of incubation) | 0 (a score of 0 if no trace of the product of hydrolysis was seen after 8 hours of incubation) |
| Ac-GASIHFKFL-NH2 [SIHF] | 0 (a score of 0 if no trace of the product of hydrolysis was seen after 8 hours of incubation) | 0 (a score of 0 if no trace of the product of hydrolysis was seen after 8 hours of incubation) |
| Ac-GASIHGKFL-NH2 [SIHG] | 0 (a score of 0 if no trace of the product of hydrolysis was seen after 8 hours of incubation) | 0 (a score of 0 if no trace of the product of hydrolysis was seen after 8 hours of incubation) |
| Ac-GASIHHKFL-NH2 [SIHH] | 3 (a score of 3 for detection at 8 hours) | 3 (a score of 3 for detection at 8 hours) |
| Ac-GASIHIKFL-NH2 [SIHI] | 3 (a score of 3 for detection at 8 hours) | 3 (a score of 3 for detection at 8 hours) |
| Ac-GASIHKKFL-NH2 [SIHK] | 3 (a score of 3 for detection at 8 hours) | 4 (a score of 4 for detection at 6 hours) |
| Ac-GASIHMKFL-NH2 [SIHM] | 0 (a score of 0 if no trace of the product of hydrolysis was seen after 8 hours of incubation) | 0 (a score of 0 if no trace of the product of hydrolysis was seen after 8 hours of incubation) |
| Ac-GASIHNKFL-NH2 [SIHN] | 0 (a score of 0 if no trace of the product of hydrolysis was seen after 8 hours of incubation) | 0 (a score of 0 if no trace of the product of hydrolysis was seen after 8 hours of incubation) |
| Ac-GASIHPKFL-NH2 [SIHP] | 0 (a score of 0 if no trace of the product of hydrolysis was seen after 8 hours of incubation) | 0 (a score of 0 if no trace of the product of hydrolysis was seen after 8 hours of incubation) |
| Ac-GASIHQKFL-NH2 [SIHQ] | 0 (a score of 0 if no trace of the product of hydrolysis was seen after 8 hours of incubation) | 0 (a score of 0 if no trace of the product of hydrolysis was seen after 8 hours of incubation) |
| Ac-GASIHRKFL-NH2 [SIHR] | 3 (a score of 3 for detection at 8 hours) | 3 (a score of 3 for detection at 8 hours) |
| Ac-GASIHSKFL-NH2 [SIHS] | 0 (a score of 0 if no trace of the product of hydrolysis was seen after 8 hours of incubation) | 0 (a score of 0 if no trace of the product of hydrolysis was seen after 8 hours of incubation) |
| Ac-GASIHTKFL-NH2 [SIHT] | 0 (a score of 0 if no trace of the product of hydrolysis was seen after 8 hours of incubation) | 0 (a score of 0 if no trace of the product of hydrolysis was seen after 8 hours of incubation) |
| Ac-GASIHVKFL-NH2 [SIHV] | 3 (a score of 3 for detection at 8 hours) | 3 (a score of 3 for detection at 8 hours) |
| Ac-GASIHWKFL-NH2 [SIHW] | 3 (a score of 3 for detection at 8 hours) | 3 (a score of 3 for detection at 8 hours) |
| Ac-GASIHYKFL-NH2 [SIHY] | 0 (a score of 0 if no trace of the product of hydrolysis was seen after 8 hours of incubation) | 0 (a score of 0 if no trace of the product of hydrolysis was seen after 8 hours of incubation) |

— US8969516B2, “Method of hydrolysis of peptide bond” (priority 2006, dated 2015)
